{
  "source": "patent US20200289525A1",
  "about": "“Methods of Increasing Microbial Diversity of a Skin Microbiota” (The Procter & Gamble Company, priority 2019, published 2020)",
  "key": {"skin microbiota [1]": {"tested_on": "skin microbiota", "test": "Four-week daily wash of atopic dermatitis without lesions, 16S rDNA sequencing and qPCR (FIG. 6)", "type": "in vivo, human", "conditions": "baseline vs four weeks of daily washing, p=0.027, FDR>0.05", "procedure": "A study mirroring the study described in the brief description of FIG. 5 was conducted with subjects having atopic dermatitis without lesions substituted for subjects with atopic dermatitis with lesions. The relative abundance of Staphylococcus was measured using 16S rDNA sequencing and qPCR quantification. Subjects performed the standard leg wash using B7U bar soap, vehicle only (BCP2), or zinc pyrithione in BCP2 vehicle (BCP2ZPT). Samples were taken at the onset of the study to establish a baseline and after four weeks of leg washings.\nA related experiment assessing the treatment effects of a zinc ionophore on skin microbiota diversity in subjects with atopic dermatitis without lesions was performed to assess the effects of the therapeutic in this context. The experimental design involved daily body washes of subjects with atopic dermatitis lacking visible lesions over a four-week period, with subjects engaging in daily washing with either B7U bar soap, vehicle alone (BCP2 base), or BCP2ZPT (which included 0.5% zinc pyrithione). Skin samples were again analyzed for microbiota composition by 16S rDNA sequencing with qPCR to quantify the abundances of the bacterial genera in the skin microbiotas."}, "skin microbiota [2]": {"tested_on": "skin microbiota", "conditions": "four-week wash period", "excerpt": "Only qualified subjects with atopic dermatitis received treatment products during the treatment phase. These qualified subjects were each divided into three treatment groups. […]\nSamples of microbiotas from skin with atopic dermatitis were subjected to sequence analyses to identify the various genera present on the skin and to measure relative abundances. In a first sequencing round, read lengths of 150-800 bp were obtained using the Closed OTU picking method. […] The second sequencing round yielded read lengths of 250-600 bp using the Cosed OTU picking method. […] The third sequencing round involved read lengths of 250-600 bp being obtained using the Cosed OTU picking method. […]\nA study was conducted of the effect on skin microbiota of single washes or four-week wash periods of either a 0.5% zinc pyrithione body wash, a vehicle body wash, or a B7U bar soap wash. The relative abundances of 11 identified bacterial genera were monitored, along with a category of unclassified microbes. […]"}, "skin microbiota [3]": {"tested_on": "skin microbiota", "conditions": "skin having atopic dermatitis, in a body wash"}, "skin microbiota [4]": {"tested_on": "skin microbiota", "conditions": "atopic dermatitis lesion area, baseline vs four weeks of daily washes", "procedure": "The effect of zinc pyrithione body wash on skin microbiota of subjects with atopic dermatitis with lesions was assessed using a standard leg wash assay. Subjects completed a 4-week period of daily leg washes with zinc pyrithione (BCP2ZPT), a B7U bar soap, or a vehicle control (BCP2). Samples were collected at baseline (study onset) and after 4 weeks of leg washings.\nAnother study was conducted to specifically assess the effect of a zinc ionophore, i.e., zinc pyrithione, on the skin microbiota diversity of atopic dermatitis lesions using standard body wash protocol well-known in the art. The washes were carried out on a daily basis over a four-week period and 16S rDNA sequencing was used to identify bacterial genera while qPCR amplification was used to quantify the abundance of the genera. Measurements were taken at baseline and after the four-week wash period. Controls involved subjects washing with B7U bar soap or the BCP2 vehicle alone. […]"}},
  "note": "Entries after “also recorded” stand apart in the source; their conditions may differ. Where two headings read alike, the source gives them in different places.",
  "data": [
    {"smiles": "[O-]n1ccccc1=S.[O-]n1ccccc1=S.[Zn+2]", "note": "[zinc pyrithione, zinc salt of 1-hydroxy-2-pyridinethione]", "values": [
      {"measurement": "abundance of Staphylococcus", "setting": "skin microbiota [1]", "result": "significantly reduced; also recorded: selective reduction"},
      {"measurement": "relative abundance of Staphylococcus", "setting": "skin microbiota [2]; atopic dermatitis patients not exhibiting lesions", "result": "selectively reduces"},
      {"measurement": "relative abundance of Staphylococcus", "setting": "skin microbiota [2]; subjects with atopic dermatitis lesions", "result": "selectively reduces"},
      {"measurement": "total bacterial level", "setting": "skin microbiota [3]", "result": "lowers"},
      {"measurement": "abundance of Kocuria", "setting": "skin microbiota [4]", "result": "increased"}
    ]}
  ]
}
